# Tests used:
# [1] = system: B16F10 cells; assay: Syngeneic tumor mice model, B16F10 subcutaneous; assay type: in vivo, C57BL/6 mice
# Experimental: 5×10^5 B16F10 cells were injected sub cutaneously in the right flank of C57BL/6 mice. Mice received HEI2328 (n=8, ip, 2.3 mg/kg in 10% DMSO/PBS) daily or placebo (n=8, 10% DMSO/PBS). A. incidence of tumor appearance B. Tumor size (mm2) and C. tumor weight at sacrifice day (J12). *, p<0.05 (Mann-Whitney test).
# 5×10^5 LLC or 5×10^5 B16F10 cells were injected sub cutaneously in the right flank of C57BL6 mice. Mice received HEI3090 (ip, 2.5 mg/kg in 10% DMSO/PBS) daily or placebo (10% DMSO/PBS). A,C. incidence of tumor appearance B,D. Tumor size (mm2) and tumor weight at sacrifice day (J12). E. HEI-treated tumors are more immunogenic. Expression of CMH1 (H2K^b/D^b) and PD-L1 by LLC (black) and B16F10 (grey) tumors is shown in dot plots. Numbers highlighted the percentage of tumor cells positive for H2K^b/D^b and PD-L1. […] F. CD-45 positive infiltrates is increased in LLC and B16F10 tumors. *, p<0.05; **, p<0.01; ***, p<0.001 Mann-Whitney test.
# 5×10^5 LLC or 5×10^5 B16F10 cells were injected sub cutaneously in the right flank of C57BL6 mice. Mice received HEI3090 (ip, 2.5 mg/kg in 10% DMSO/PBS) daily or placebo (10% DMSO/PBS). A. The quantity of immunosuppressive cells is reduced. Dot plot of representative experiment. Numbers highlighted the percentage of M-MDSC and PMN-MDSC. […] B. The quantity of effector T cells ([…], NK, CD4+) is increased.
# Therefore the inventors tested this compound on a classical tumor mice model. 5×10^5 B16F10 cells (in 200 μl PBS) were injected subcutaneously in the right flank of C57B16 mice that received a daily intraperitoneal injection of 2.3 mg/kg HEI2328 (in PBS/10% DMSO) or placebo (PBS/10% DMSO) for 12 days. […] However, this encouraging result was not statistically significant.
# 4.2. By killing tumoral cells, HEI3090 may represent a new anti-tumor treatment. To test this hypothesis, immunocompetent C57B16J mice were subcutaneously injected with 5×10^5 B16F10 or 5×10^5 LLC (Lewis Lung Cancer) cells and treated daily with HEI3090 (ip, 2.5 mg/kg in 10% DMSO/PBS) or placebo (10% DMSO/PBS). […] In both tumor mice models, tumors weight in the treated group was reduced by 10-fold in the B16F10 model (8 mg vs 81 mg) and by 4-folds in the LLC model (80 mg vs 295 mg). Of interest, tumors from the HEI3090 treated group are more immunogenic than tumors from the placebo group.
# [2] = system: B16F10 melanoma cell line; assay: Large pore opening (Topro3) in B16F10 melanoma cell line; assay type: cell-based
# Experimental: Calcium channel activity (Fluo4AM probe) and large pore opening (Topro3 probe) were analysed by FACS. Unstimulated (NS) or cells treated with HEI2328 (50 μM) alone or with BzATP (500 μM) were analysed. (A) Representative dots plots. Numbers highlighted the percentage of positive cells.
# A. Large pore opening. Dot plot of representative experiment. Numbers highlighted the percentage of positive cells. […] B. representative curve of XTT absorbance over the time. […] Mean±SEM are shown. ***, p<0.001; ****, p<0.0001 Mann-Whitney test.
# 4.1. […] To test this hypothesis, immunocompetent C57B6J (Envigo, Gannat France) mice were injected with the melanoma cell line B16-F10.
# Of interest, potentiation of large pore opening correlated with increased-B16F10 cell death, as illustrated in FIG. 9. Cells treated during 1 h with BzATP and HEI3090 incorporated 3-fold more Topro3 than cells treated with BzATP only (FIG. 9A). Longer incubation increased cell death, since it was observed up to 80% of dead cells after 3 h treatment (FIG. 9B).
# [3] = Solubility (qualitative statement); assay type: physicochemical
# [4] = Stability in mouse liver microsomes; assay type: in vitro ADME; conditions: 1 μM; 0, 5, 10, 20, 30 and 40 min; mass spectrometry
# Experimental: A. HEI-2328 and -3090 are stable molecules. Mouse liver microsomes from BD Gentest (ref 5345001) were incubated with HEI-2314, -2328, -2333 and -3090 at 1 μM for 0, 5, 10, 20, 30 and 40 min. The stability of the compounds was assayed by mass spectrometry.
# Stability was studied in the mouse liver microsome system—and human, not shown—(FIG. 13A) and directly in vivo, for HEI3090 molecule (FIG. 13B). These experiments highlighted that HEI3090 is found at a concentration of maximum 2.5 μM in the plasma of mice injected with HEI3090 (ip, 1.5 mg/kg in 10% DMSO).
Compound,"tumor incidence ([1]; HEI2328 2.3 mg/kg ip daily, 12 days)","decrease of tumor growth ([1]; HEI2328 2.3 mg/kg ip daily, 12 days, not statistically significant) [%]",increase of large pore opening (Topro3 positive cells) ([2]; HEI2328 50 μM added on BzATP (500 μM) treated cells),"toxic effect of compound alone ([2]; absence of BzATP, 50 μM)",solubility [3],stability in mouse liver microsomes [4],immunosuppressive cells (M-MDSC) in tumor infiltrates ([1]; HEI3090 ip 2.5 mg/kg daily),tumors weight ([1]; HEI3090 ip 2.5 mg/kg daily (placebo 81 mg)) [mg],"reduction of tumors weight ([1]; HEI3090 ip 2.5 mg/kg daily, vs placebo) [fold]",Topro3 incorporation vs cells treated with BzATP only ([2]; 1 h with BzATP and HEI3090) [fold]
"O=C(NCc1ccc(Cl)cc1Cl)[C@@H]1CCC(=O)N1C(=O)Nc1ccc(Cl)c(Cl)c1 [HEI2328, (S)—N^2-(2,4-Dichlorobenzyl)-N^1-(3,4-dichlorophenyl)-5-oxopyrrolidine-1,2-dicarboxamide]",delayed,20,more than 6 fold,no toxic effect,poorly soluble,stable,–,–,–,–
"O=C(NCc1ccc(Cl)cc1Cl)[C@@H]1CCC(=O)N1C(=O)Nc1ccc(Cl)nc1 [HEI3090, (S)—N^1-(6-Chloropyridin-3-yl)-N^2-(2,4-dichlorobenzyl)-5-oxopyrrolidine-1,2-dicarboxamide]",–,–,–,–,more soluble,stable,less M-MDSC,8,10,3
